Reference: paper PMC13083723 (Patterns, 2026)
Values joined by “and” are separate entries in the source; they are usually repeats but may differ in a detail not shown here. Equal values may be shown once. Where a name gives a salt, the structure may show the parent alone. Read-outs that look alike come from different tables or passages of the source.

How the values were obtained:
Vero-E6 cells = assay: cells; assay type: cell-based
SARS-CoV-2 [1] = conditions: cited from earlier work; for CaCo2 CPE inhibition %: Caco-2, 20 µM
A549-ACE2 cells = assay: cells; assay type: cell-based; conditions: A549-ACE2, 24 h, read-out: PLD_Effect(%) A549-ACE2
[2] = cited from earlier work; for IC50: read-out: IC50 (value); for Ki: read-out: Ki (value)
SARS-CoV-2 [3] = conditions: 10 µM; cited from earlier work
[4] = Chlorocebus sabaeus, Vero C1008, 24 h, read-out: PLD Effect in % 5 µM
[5] = Chlorocebus sabaeus, Vero C1008, 24 h, read-out: PLD Effect in % 10 µM
[6] = Chlorocebus sabaeus, Vero C1008, 24 h, read-out: PLD Effect in % 20 µM
[7] = Chlorocebus sabaeus, Vero C1008, read-out: PLD EC50 µM
[8] = Chlorocebus sabaeus, Vero C1008, 24 h, read-out: PLD_Effect(%) VERO-E6
[9] = value is the negative log10 of mol/L
[10] = Chlorocebus sabaeus, Vero C1008, 24 h; read-out: PLD Effect in % 5 µM
[11] = Chlorocebus sabaeus, Vero C1008, 24 h; read-out: PLD Effect in % 10 µM
[12] = Chlorocebus sabaeus, Vero C1008, 24 h; read-out: PLD Effect in % 20 µM

Compound: O=C(CCCN1CCC2(CC1)C(=O)N(Cc1cccc(F)c1)CN2c1ccccc1)c1ccc(F)cc1 [3'-fluorobenzylspiperone, reference compound]
- PLD induction assay (active) (Vero-E6 cells): active
- activation at 5 µM (Vero-E6 cells; [4]): 61.8%
- activation at 10 µM (Vero-E6 cells; [5]): 41.3%
- activation at 20 µM (Vero-E6 cells; [6]): 8.92%
- EC50 (Vero-E6 cells; [7]): 10.3 µM
- CaCo2 CPE inhibition % (SARS-CoV-2 [1]): 102.38
- CaCo2 CPE assay (active) (SARS-CoV-2 [1]; Caco-2): active

Compound: CN1CCCC(n2nc(Cc3ccc(Cl)cc3)c3ccccc3c2=O)CC1 (stereo not shown) [AZELASTINE HYDROCHLORIDE]
- activation at 10 µM (Vero-E6 cells; [8]): 57.2%
- activation at 10 µM (A549-ACE2 cells): 57.3%
- pIC50 (value) [2]: 7.0
- pchembl_value (AC50) [2]: 7.62
- pchembl_value (pIC50) [2]: 7.00
- AC50 ([2]; read-out: AC50 (value)): 24 nM
- IC50 [2]: 1000 nM
- pchembl_value (IC50) [2, 9]: 6.00

Compound: CCN(CC)CCCC(C)Nc1c2ccc(Cl)cc2nc2ccc(OC)cc12 (stereo not shown) [quinacrine hydrochloride, reference compound]
- activation at 5 µM (Vero-E6 cells; [10]): 145%
- activation at 10 µM (Vero-E6 cells; [11]): 141%
- activation at 20 µM (Vero-E6 cells; [12]): -13.2%
- EC50 (Vero-E6 cells; [7]): 1.55 µM
- Vero-E6 CPE inhibition % (SARS-CoV-2 [3]): -0.23%

Compound: C[C@@H]1CCCN1CCc1cc2cc(-c3ccc(C#N)cc3)ccc2o1 [ABT 239 tartrate]
- activation at 10 µM (Vero-E6 cells; [8]): 66.8%
- activation at 10 µM (A549-ACE2 cells): 67.4%
- Ki [2]: 0.45 nM

Compound: C=CCN(C)CCCCCCOc1ccc(C(=O)c2ccc(Br)cc2)c(F)c1 [Ro 48-8071 (fumarate)]
- activation at 10 µM (Vero-E6 cells; [8]): 92.9%
- activation at 10 µM (A549-ACE2 cells): 102%
- Log IC50 (value) [2]: -8.19
- pIC50 (value) [2]: 6.65
- pchembl_value (Log IC50) [2]: 8.19
- pchembl_value (pIC50) [2]: 6.65

Compound: Clc1ccc(C(OCCN2CCCCC2)c2ccccc2)cc1 (stereo not shown) [CLOPERASTINE HYDROCHLORIDE]
- activation at 10 µM (Vero-E6 cells; [8]): 63.9%
- activation at 10 µM (A549-ACE2 cells): 72.5%
- pchembl_value (AC50) [2]: 6.48
- AC50 ([2]; read-out: AC50 (value)): 331 nM

Compound: CCN(CCCc1ccccc1)CCCc1ccccc1 [ALVERINE CITRATE]
- activation at 10 µM (Vero-E6 cells; [8]): 58.9%
- activation at 10 µM (A549-ACE2 cells): 63.7%
- AC50 [2]: 29 nM

Compound: Nc1nc2c(c(N3CCNCC3)n1)CCC1=C2[C@@H]2CCCC[C@@H]2O1 [A-987306]
- activation at 10 µM (Vero-E6 cells; [8]): 70.7%
- activation at 10 µM (A549-ACE2 cells): 52.2%
- pKi (value) [2]: 7.1
- pchembl_value (pKi) [2]: 7.10
- pchembl_value (IC50) [2, 9]: 8.41 and 10.06 and 8.24

Compound: CN1CCCN(C(c2ccccc2)c2ccc(Cl)cc2)CC1 (stereo not shown) [Homochlorcyclizine?2HCl]
- activation at 10 µM (Vero-E6 cells; [8]): 82.5%
- activation at 10 µM (A549-ACE2 cells): 69.6%
- pchembl_value (AC50) [2]: 6.64 and 7.14 and 6.83

Compound: Cn1ncc(Cl)c1-c1cc(C(=O)N[C@H](CN)Cc2cccc(F)c2)sc1Cl [Afuresertib]
- activation at 10 µM (Vero-E6 cells; [8]): 69.5%
- activation at 10 µM (A549-ACE2 cells): 77.1%
- Ki [2]: 0.08 nM
- pchembl_value (IC50) [2, 9]: 10.10 and 8.70 and 8.59
- pchembl_value (Ki) [2, 9]: 10.10

Compound: C[C@@H](NCCCc1cccc(C(F)(F)F)c1)c1cccc2ccccc12 [AMG-073 HCl, cinacalcet hydrochloride, reference compound]
- activation at 10 µM (Vero-E6 cells; [8]): 61.8%
- activation at 5 µM (Vero-E6 cells; [10]): 70.8%
- activation at 10 µM (Vero-E6 cells; [11]): 79.5%
- activation at 20 µM (Vero-E6 cells; [12]): 253%
- EC50 (Vero-E6 cells; Chlorocebus sabaeus, Vero C1008; read-out: PLD EC50): 18.6 µM
- Vero-E6 CPE inhibition % (SARS-CoV-2 [3]): -0.15
- activation at 10 µM (A549-ACE2 cells): 104%
- pchembl_value (AC50) [2]: 6.14
- AC50 ([2]; read-out: AC50 (value)): 730 nM

Compound: CN1CCN(C(=O)CN[C@@H]2C[C@H]2c2ccc(OCc3ccccc3)cc2)CC1 [RN-1]
- activation at 10 µM (Vero-E6 cells; [8]): 87.7%
- activation at 10 µM (A549-ACE2 cells): 70.6%
- pchembl_value (IC50) [2, 9]: 8.51 and 6.29

Compound: OC(c1cc(C(F)(F)F)nc2c(C(F)(F)F)cccc12)C1CCCCN1 (stereo not shown) [mefloquine hydrochloride, reference compound]
- activation at 5 µM (Vero-E6 cells; [4]): 102%
- activation at 10 µM (Vero-E6 cells; [5]): 188%
- activation at 20 µM (Vero-E6 cells; [6]): 174%
- EC50 (Vero-E6 cells; [7]): 1.48 µM
- Vero-E6 CPE inhibition % (SARS-CoV-2 [3]): -0.32%

Compound: O=C(NCCN1CCC2(CC1)C(=O)NCN2c1cccc(F)c1)c1ccc2ccccc2c1 [VU-0364739]
- activation at 10 µM (Vero-E6 cells; [8]): 55.1%
- activation at 10 µM (A549-ACE2 cells): 113%
- IC50 [2]: 20 nM
- pchembl_value (IC50) [2, 9]: 7.70

Compound: Cn1ncc(Cl)c1-c1cc(C(=O)N[C@H](CN)Cc2ccc(F)c(F)c2)oc1Cl [Uprosertib]
- activation at 10 µM (Vero-E6 cells; [8]): 82.6%
- activation at 10 µM (A549-ACE2 cells): 92%
- IC50 [2]: 339 nM
- pchembl_value (IC50) [2, 9]: 6.47

Compound: CCN(CC)CCO[C@H]1CC[C@@]2(C)C(=CC[C@@H]3[C@@H]2CC[C@]2(C)C(=O)CC[C@@H]32)C1 [U-18666A, reference compound]
- PLD Effect in % 5 µM (Vero-E6 cells; 5 µM): 84.91%
- PLD Effect in % 10 µM (Vero-E6 cells; 10 µM): 98.22%
- PLD Effect in % 20 µM (Vero-E6 cells; 20 µM): 112.55%
- EC50 (Vero-E6 cells; read-out: PLD EC50): 1.77 µM
- CaCo2 CPE inhibition % (SARS-CoV-2 [1]): 77.44%
